Assay results as given in US10766912B2 (priority 2017, dated 2020).
Like-named read-outs stand apart in the source and are kept apart here.

Experiments:
Assay type in all cases: cell-based
[1] = system: HCV GT1b wild-type replicon; experiment: Assay Example 1: activity against HCV GT1b wild-type replicon (luciferase, transient transfection); conditions: Hepatitis C virus, 72 h, Huh 7 cells, 3 days
Procedure: (§1) Cells: Huh 7 cell line and HCV GT1b/3a and GT1b/6a NS5A chimeric replicons and GT1b and GT1a wild-type replicon RNA.
(§2) Treatment of Compound: According to the assay final concentrations of the compounds in Table 2, DMSO stock solutions of the compounds were diluted and then added to a 96-well assay plate. The final concentration of DMSO was 0.5%.
(§3) The preparation of cells: After replicon plasmid DNA was linearized with a corresponding restriction enzyme, the DNA was transcribed into RNA by using T7RNA polymerase. Replicon RNA prepared by transcription in vitro was transfected into Huh-7 cells by electroporation. Transfected cells were seeded at a density of 10,000 cells per well into the 96-well assay plate containing the diluted compounds, and then the plate was placed in a 37° C. incubator with 5% CO2 and cultured for 3 days.
(§4) Drug activity assay: Luminescence signal value (RLU) was detected with Envision within 15 minutes using the luciferase assay reagent Britelite plus, and the original data (RLU) was used for the calculation of the activity of the compounds.
(§5) The activity of the compounds was calculated by using the equation below: Inhibition %=(ZPE−CPD)/(ZPE−HPE)×100%*
(§6) The cell viability percentages (Viability %) and the inhibition percentages (Inhibition %) were imported into GraphPad Prism software, respectively, and curves were fitted by using nonlinear regression method to obtain the corresponding curves of the compounds, and the cytotoxicity (CC50) thereof and inhibitory activity (EC50) values against the HCV replicon thereof.

[2] = system: HCV GT1a wild-type replicon; experiment: Assay Example 1: activity against HCV GT1a wild-type replicon; conditions: Hepatitis C virus, 72 h, Huh 7 cells, 3 days, luciferase
Procedure: as §1, §2, §3, §4, §5, §6

[3] = system: HCV GT1b/3a NS5A chimeric replicon; experiment: Assay Example 1: activity against HCV GT1b/3a NS5A chimeric replicon; conditions: Hepatitis C virus, Huh-7, 72 h, read-out: EC50 value GT1b/3a NS5A chimeric replicon
Procedure: as §1, §2, §3, §4, §5, §6

[4] = system: HCV GT1b/6a NS5A chimeric replicon; experiment: Assay Example 1: activity against HCV GT1b/6a NS5A chimeric replicon; conditions: Hepatitis C virus, Huh-7, 72 h, read-out: EC50 value GT1b/6a NS5A chimeric replicon
Procedure: as §1, §2, §3, §4, §5, §6

in vitro = conditions: human; Huh 7 cells with GT1b wild-type replicon, 3 days, CellTiter-Fluor
Procedure: as §1, §2, §3
(§7) Cell viability assay: A cell growth fluorescent titration detection reagent CellTiter-Fluor was added to the 96-well plate of the GT1b wild-type replicon. After the cells were cultured for 1 hour in a 37° C. incubator with 5% CO2, the fluorescence signal value (RFU) was detected by Envision, and the original data (RFU) was used for the calculation of the cytotoxicity of the compounds.
The cytotoxicity of the compounds was calculated by using the equation below: Cell Viability %=(CPD−HPE)/(ZPE−HPE)×100%*
as §6

[5] = system: HCV GT1b/3a NS5A chimeric replicon; experiment: Assay Example 2: activity against GT1b/3a NS5A chimeric replicon; conditions: Hepatitis C virus, Huh-7, 72 h, read-out: EC50 Value GT1b/3a-NS5A-wt
Procedure: (§8) Cells: Huh-7 cells are liver cancer cell strains (from AppTec, USA), HCV GT1a and GT1b wild type (wt) replicons, GT1b/3a, GT1b/4a, GT1b/5a and GT1b/6a NS5A chimeric replicons.
(§9) Treatment of Compound: According to the assay final concentrations of the compounds in Table 5, DMSO stock solutions of the compounds were diluted and then added to a 96-well assay plate. The final concentration of DMSO was 0.5%.
as §3, with “T7 RNA” for “T7RNA”, “then” for “then the plate was”
as §4
(§10) The cytotoxicity of the compounds was calculated by using the equation below: Cell Viability %=(CPD−HPE)/(ZPE−HPE)×100%* The activity of the compounds was calculated by using the equation below: Inhibition %=(ZPE−CPD)/(ZPE−HPE)×100%*
as §6, with “thereof and the inhibitory activity” for “thereof and inhibitory activity”

[6] = system: HCV GT1b/6a NS5A chimeric replicon; experiment: Assay Example 2: activity against GT1b/6a NS5A chimeric replicon; conditions: Hepatitis C virus, Huh-7, 72 h, read-out: EC50 Value GT1b/6a-NS5A-wt
Procedure: as §8, §9
as §3, with “T7 RNA” for “T7RNA”, “then” for “then the plate was”
as §4, §10
as §6, with “thereof and the inhibitory activity” for “thereof and inhibitory activity”

[7] = system: HCV GT1b wild type (wt) replicon; experiment: Assay Example 2: activity against HCV GT1b wild-type replicon; conditions: Hepatitis C virus, read-out: EC50 Value GT1b-wt
Procedure: as §8, §9
as §3, with “T7 RNA” for “T7RNA”, “then” for “then the plate was”
as §4, §10
as §6, with “thereof and the inhibitory activity” for “thereof and inhibitory activity”

[8] = Assay Example 2: cell viability assay (CellTiter-Fluor), GT1b wild-type replicon plate; conditions: human, Huh-7 cells with GT1b wild-type replicon, read-out: CC50 Value GT1b-wt
Procedure: as §8, §9
as §3, with “T7 RNA” for “T7RNA”, “then” for “then the plate was”
as §7, §10
as §6, with “thereof and the inhibitory activity” for “thereof and inhibitory activity”

[9] = 72 h, Huh-7 cells, transient transfection, 3 days
[10] = Huh-7 cells transfected with HCV GT1b wild-type replicon RNA

| Compound | EC50 [1] [pM] | EC50 [2] [pM] | EC50 [3] [pM] | EC50 [4] [pM] | CC50 (in vitro) [pM] | EC50 [5] [pM] | EC50 [6] [pM] | EC50 [7, 9] [pM] | CC50 at 3 days [8, 10] [pM] | EC50 ([7]; Huh-7, 72 h) [pM] | CC50 at 3 days [8] [pM] |
| --- | --- | --- | --- | --- | --- | --- | --- | --- | --- | --- | --- |
| COC(=O)N[C@H](C(=O)N1CCC[C@H]1C(=O)Nc1ccc([C@@H]2CC[C@@H](c3ccc4nc([C@@H]5CCCN5C(=O)[C@@H](NC(=O)OC)[C@@H](C)OC)[nH]c4c3)N2c2cc(F)c(N3CC[Si](C)(C)CC3)c(F)c2)cc1)[C@@H](C)OC [Compound 6a, Methyl ((2S,3R)-1-((S)-2-(6-((2S,5S)-1-(4-(4,4-dimethylazasilinan-1-yl)-3,5-difluorophenyl)-5-(4-((S)-1-(N-(methoxycarbonyl)-O-methyl-L-threonyl)pyrrolidin-2-formylamino)phenyl)pyrrolidin-2-yl)-1H-benzo[d]imidazol-2-yl)pyrrolidin-1-yl)-3-methoxy-1-oxobutan-2-yl)carbamate] | 5.7 | 14 | 5.2 | 230 | > 100 | – | – | – | – | – | – |
| COC(=O)N[C@H](C(=O)N1CCCC1C(=O)Nc1ccc([C@@H]2CC[C@@H](c3ccc(-c4cnc([C@@H]5CCCN5C(=O)[C@@H](NC(=O)OC)[C@@H](C)OC)[nH]4)cc3)N2c2cc(F)c(N3CC[Si](C)(C)CC3)c(F)c2)cc1)[C@@H](C)OC (stereo partly shown) [Compound 8a] | – | – | – | – | – | 79.7 | 9.05 | 2.08 | > 200 | – | – |
| COC(=O)N[C@H](C(=O)N1CCC[C@H]1C(=O)Nc1ccc([C@H]2CC[C@H](c3ccc(NC(=O)[C@@H]4CCCN4C(=O)[C@@H](NC(=O)OC)[C@@H](C)OC)cc3)N2c2cc(F)c(N3CC[Si](C)(C)CC3)c(F)c2)cc1)[C@@H](C)OC [Compound 1b, Methyl ((2S,2′S,3R,3′R)-((2S,2′S)-(((((2R,5R)-1-(4-(4,4-dimethylazasilinan-1-yl)-3,5-difluorophenyl)pyrrolidin-2,5-diyl)bis(4,1-phenylene))bis(azanediyl))bis(carbonyl))bis(pyrrolidin-2,1-diyl))bis (3-methoxy-1-oxobutan-1,2-diyl))dicarbamate] | 1.7 | 12 | 4.8 | 114 | > 100 | – | – | – | – | – | – |
| COC(=O)N[C@H](C(=O)N1CCC[C@H]1C(=O)Nc1ccc([C@@H]2CC[C@@H](c3ccc(NC(=O)[C@@H]4CCCN4C(=O)[C@@H](NC(=O)OC)[C@@H](C)OC)cc3)N2c2cc(F)c(N3CC[Si]4(CCCC4)CC3)c(F)c2)cc1)[C@@H](C)OC [Compound 3a] | – | – | – | – | – | 6.35 | 4.5 | – | – | 1.33 | > 200 |
| COC(=O)N[C@H](C(=O)N1CCC[C@H]1c1nc2cc([C@H]3CC[C@H](c4ccc5[nH]c([C@@H]6CCCN6C(=O)[C@@H](NC(=O)OC)[C@@H](C)OC)nc5c4)N3c3cc(F)c(N4CC[Si](C)(C)CC4)c(F)c3)ccc2[nH]1)[C@@H](C)OC [Compound 4b] | 5.9 | 4.1 | 1.5 | 5 | > 100 | – | – | – | – | – | – |
| COC(=O)N[C@H](C(=O)N1CCC[C@H]1c1nc2cc([C@@H]3CC[C@@H](c4ccc5[nH]c([C@@H]6CCCN6C(=O)[C@@H](NC(=O)OC)[C@@H](C)OC)nc5c4)N3c3cc(F)c(N4CC[Si](C)(C)CC4)c(F)c3)ccc2[nH]1)[C@@H](C)OC [Compound 4a] | 11 | 5.4 | 3.9 | 26 | > 100 | – | – | – | – | – | – |
| COC(=O)N[C@H](C(=O)N1CCCC1C(=O)Nc1ccc([C@H]2CC[C@H](c3ccc(-c4cnc([C@@H]5CCCN5C(=O)[C@@H](NC(=O)OC)[C@@H](C)OC)[nH]4)cc3)N2c2cc(F)c(N3CC[Si](C)(C)CC3)c(F)c2)cc1)[C@@H](C)OC (stereo partly drawn) [Compound 8b, Methyl ((2S,3R)-1-((S)-2-((4-((2R,5R)-1-(4-(4,4-dimethylazasilinan-1-yl)-3,5-difluorophenyl-5-(4-(2-((S)-1-(N-methoxycarbonyl)-O-methyl-L-threonyl)pyrrolidin-2-yl)-1H-imidazazol-5-yl)phenyl)pyrrolidin-2-yl)phenyl)carbamoyl)pyrrolidin-1-yl)-3-methoxy-1-oxobutan-2-yl)carbamate] | – | – | – | – | – | 67.9 | 6.73 | 1.59 | > 200 | – | – |
| COC(=O)N[C@H](C(=O)N1CCCC1c1nc2cc([C@H]3CC[C@H](c4ccc(-c5cnc([C@@H]6CCCN6C(=O)[C@@H](NC(=O)OC)[C@@H](C)OC)[nH]5)cc4)N3c3cc(F)c(N4CC[Si](C)(C)CC4)c(F)c3)ccc2[nH]1)[C@@H](C)OC (stereo partly shown) [Compound 15b] | – | – | – | – | – | 7.28 | – | 2.95 | > 200 | – | – |
| COC(=O)N[C@H](C(=O)N1CCC[C@H]1C(=O)Nc1ccc([C@H]2CC[C@H](c3ccc(NC(=O)[C@@H]4CCCN4C(=O)[C@@H](NC(=O)OC)[C@@H](C)OC)cc3)N2c2ccc(N3CC[Si](C)(C)CC3)c(F)c2)cc1)[C@@H](C)OC [Compound 2b, Methyl ((2S, 2′S, 3R, 3′R)-((2S, 2′S)-(((((2R, 5R)-1-(4-(4,4-dimethylazasilinan-1-yl)-3-fluorophenyl)pyrrolidin-2,5-diyl)bis(4,1-phenylene))bis(azanediyl))bis(carbonyl))bis(pyrrolidin-2,1-diyl))bis(3-methoxy-1-oxobutan-1,2-diyl))dicarbamate] | 16 | 65 | 14 | 454 | > 100 | – | – | – | – | – | – |
| COC(=O)N[C@H](C(=O)N1CCC[C@H]1c1nc2cc([C@@H]3CC[C@@H](c4ccc5[nH]c([C@@H]6CCCN6C(=O)[C@@H](NC(=O)OC)[C@@H](C)OC)nc5c4)N3c3ccc(N4CC[Si](C)(C)CC4)c(F)c3)ccc2[nH]1)[C@@H](C)OC [Compound 5a] | 19 | 17 | 13 | 174 | > 100 | – | – | – | – | – | – |
| COC(=O)N[C@H](C(=O)N1CCC[C@H]1C(=O)Nc1ccc([C@@H]2CC[C@@H](c3ccc(NC(=O)[C@@H]4CCCN4C(=O)[C@@H](NC(=O)OC)[C@@H](C)OC)cc3)N2c2ccc(N3CC[Si](C)(C)CC3)c(F)c2)cc1)[C@@H](C)OC [Compound 2a, Methyl ((2S, 2′S, 3R, 3′R)-((2S, 2′S)-(((((2S, 5S)-1-(4-(4,4-dimethylazasilinan-1-yl)-3-fluorophenyl)pyrrolidin-2,5-diyl)bis(4,1-phenylene))bis(azanediyl))bis(carbonyl))bis(pyrrolidin-2,1-diyl))bis(3-methoxy-1-oxobutan-1,2-diyl))dicarbamate] | 2.9 | 12 | 6 | 242 | > 100 | – | – | – | – | – | – |
| COC(=O)N[C@H](C(=O)N1CCC[C@H]1c1nc2cc([C@H]3CC[C@H](c4ccc5[nH]c([C@@H]6CCCN6C(=O)[C@@H](NC(=O)OC)[C@@H](C)OC)nc5c4)N3c3ccc(N4CC[Si](C)(C)CC4)c(F)c3)ccc2[nH]1)[C@@H](C)OC [Compound 5b] | 17 | 13 | 6.3 | 16 | > 100 | – | – | – | – | – | – |
